Molecules are shown by their SMILES.

The values that follow come from patent EP0314239A2, “Tripeptide renin inhibitors with N-terminal ureido or sulfamido groups” (Merck & Co., Inc., priority 1987, dated 1989).

The target in this assay is T1, renin (Homo sapiens, UniProt P00797).
T1 sequence (P00797 67-406): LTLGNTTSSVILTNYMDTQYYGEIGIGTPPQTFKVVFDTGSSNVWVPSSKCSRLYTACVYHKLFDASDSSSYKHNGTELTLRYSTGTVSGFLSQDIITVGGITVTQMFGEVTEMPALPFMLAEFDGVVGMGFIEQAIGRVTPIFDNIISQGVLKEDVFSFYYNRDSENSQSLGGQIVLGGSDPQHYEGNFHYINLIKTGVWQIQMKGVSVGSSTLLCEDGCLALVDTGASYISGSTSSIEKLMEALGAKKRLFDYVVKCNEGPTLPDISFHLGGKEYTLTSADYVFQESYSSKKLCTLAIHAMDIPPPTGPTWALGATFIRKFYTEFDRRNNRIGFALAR
The experiment in a line: Renin inhibition IC50, by the methods of J. Med. Chem., 1985, 28, 1789-1790. It is filed as biochemical. The source says: The following examples are intended to be representative and not limiting. ICso results were obtained according to the methods described in J. Med. Chem., 1985, 28, 1789-1790.
`CC[C@H](C)CNC(=O)C[C@H](O)[C@H](CC1CCCCC1)NC(=O)[C@H](Cc1c[nH]cn1)NC(=O)[C@H](Cc1ccccc1)NC(=O)N1CCOCC1` [Example 4, N-(Morpholin-4-yl)carbonyl-Phenylalanyl-Histidyl-ACHPA-2(S)-Methylbutylamide] gave an IC50 of 0.005 µM. Next, `O=C(C[C@H](O)[C@H](CC1CCCCC1)NC(=O)[C@H](Cc1c[nH]cn1)NC(=O)[C@H](Cc1ccccc1)NC(=O)N1CCOCC1)NC1CN2CCC1CC2` (stereo partly drawn) [N-(morpholin-4-yl)carbonyl-L-Phenylalanyl-L-Histidyl-(3S,4S)-4-amino-5-cyclohexyl-3-hydroxy pentanoyl-3-quinuclidinyl amide]: 0.03 µM. Next, `CC[C@H](C)CNC(=O)C[C@H](O)[C@H](CC1CCCCC1)NC(=O)[C@H](Cc1c[nH]cn1)NC(=O)[C@H](Cc1ccccc1)NC(=O)N1CCN(C(=O)OC(C)(C)C)CC1` [Example 5, N-(4-Boc-Piperizinyl)Carbonyl-Phenylalanyl-Histidyl-ACHPA-2(S)Methylbutylamide]: 0.01 µM; `CC[C@H](C)CNC(=O)C[C@H](O)[C@H](CC1CCCCC1)NC(=O)[C@H](Cc1c[nH]cn1)NC(=O)[C@H](Cc1ccccc1)NC(=O)N1CCNCC1` [Example 6, N-(Piperazin-1-yl)carbonyl-Phenylalanyl-Histidyl-ACHPA-2(S)-Methylbutylamide]: 0.043 µM; `C[N+]12CCC(CC1)C(NC(=O)C[C@H](O)[C@H](CC1CCCCC1)NC(=O)[C@H](Cc1c[nH]cn1)NC(=O)[C@H](Cc1ccccc1)NC(=O)N1CCOCC1)C2` (stereo partly drawn) [Example 7, N-(morpholin-4-yl)carbonyl-L-Phenylalanyl-L-Histidyl(3S,4S)-4-Amino-5-Cyclohexyl-3-Hydroxypentanoyl-1-Methylquinuclidinium-3-yl-Amide Acetate]: 0.029 µM.

Usually IC50 stands for the concentration that gives 50% inhibition. Higher therefore signals weaker potency in that assay.
